Reference: patent publication US5965569A, “Polycyclic aminopyridine compounds which are acetylcholinesterase inhibitors, process for preparing them and their use” (priority 1995, dated 1999)
Where a name gives a salt, the structure may show the parent alone. Read-outs that look alike come from different tables or passages of the source.

What was measured:
acetylcholinesterase = acetylcholinesterase (Homo sapiens, UniProt P22303); assay: Acetylcholinesterase-inhibiting capacity, colorimetric method of Ellman et al.; format: biochemical
Chain of acetylcholinesterase (P22303 32-614): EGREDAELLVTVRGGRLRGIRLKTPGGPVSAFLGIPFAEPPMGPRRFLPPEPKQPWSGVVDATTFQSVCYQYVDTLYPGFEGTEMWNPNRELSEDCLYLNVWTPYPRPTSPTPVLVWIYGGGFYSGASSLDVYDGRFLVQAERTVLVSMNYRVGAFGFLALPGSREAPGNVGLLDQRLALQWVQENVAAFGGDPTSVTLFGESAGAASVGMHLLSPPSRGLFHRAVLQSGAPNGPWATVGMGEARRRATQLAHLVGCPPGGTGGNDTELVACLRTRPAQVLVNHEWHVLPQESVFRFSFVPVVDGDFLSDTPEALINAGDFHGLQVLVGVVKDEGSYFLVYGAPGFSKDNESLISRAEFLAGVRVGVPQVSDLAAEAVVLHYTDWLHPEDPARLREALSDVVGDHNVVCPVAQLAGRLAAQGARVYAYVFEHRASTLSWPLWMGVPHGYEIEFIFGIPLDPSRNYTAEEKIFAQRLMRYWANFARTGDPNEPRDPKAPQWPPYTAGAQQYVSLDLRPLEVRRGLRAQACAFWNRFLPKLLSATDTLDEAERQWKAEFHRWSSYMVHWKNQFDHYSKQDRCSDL

[1] = administered intravenously in combination with lecithin, cited from earlier work
[2] = Table 8, with respect to tacrine under the same conditions
[3] = Table 8, with respect to tacrine under the same conditions, hydrochloride

Row | Structure (SMILES) | IC50 tacrine/IC50 compound (ratio of the IC50 of tacrine to the IC50 of each compound) (acetylcholinesterase; [2]) | IC50 tacrine/IC50 compound (ratio of the IC50 of tacrine to the IC50 of each compound) (acetylcholinesterase) | other results
1 | CC1=CC2Cc3nc4cc(F)ccc4c(N)c3C(C1)C2 (stereo not shown) [Iby, 12-Amino-3-fluoro-6,7,10,11-tetrahydro-9-methyl-7,11-methanocycloocta[b]quinoline] | 15.28 |  | 
2 | CC1=CC2Cc3nc4ccccc4c(N)c3C(C1)C2 (stereo not drawn) [(+) --Ibw] |  | 0.40 | 
3 | CC1=CC2Cc3nc4ccccc4c(N)c3C(C1)C2 (stereo not drawn) [(-) --Ibw] |  | 2.80 | inhibitory activity against the enzyme acetylcholinesterase (in words) (acetylcholinesterase): much more active than their enantiomers
4 | Nc1c2c(nc3ccccc13)CCCC2 [tacrine, 9-amino-1,2,3,4-tetrahydroacridine] |  |  | usefulness in the treatment of Alzheimer's disease (in words) [1]: proves useful in the treatment of Alzheimer's disease; toxicity (in words) ([1]; drawback of tacrine): high toxicity
5 | Nc1c2c(nc3ccccc13)CC1C=C(c3ccccc3)CC2C1 (stereo not shown) [Ifw, 12-Amino-9-phenyl-6,7,10,11-tetrahydro-7,11-methanocycloocta[b]quinoline] | 1.03 |  | 
6 | CC1=CC2Cc3nc4ccccc4c(N)c3C(C1)C2 (racemic) [Ibw, 12-Amino-6,7,10,11-tetrahydro-9-methyl-7,11-methanocycloocta[b]quinoline] |  | 2.00 | 
7 | CC1=CC2Cc3nc4cccc(F)c4c(N)c3C(C1)C2 (stereo not shown) [Ibx, 12-Amino-1-fluoro-6,7,10,11-tetrahydro-9-methyl-7,11-methanocycloocta[b]quinoline] | 4.14 |  | 
8 | CCC1=CC2Cc3nc4ccccc4c(N)c3C(C1)C2 (single isomer, unassigned; (+)) [(+) --Icw, (+)-12-Amino-6,7,10,11-tetrahydro-9-ethyl-7,11-methanocycloocteno[b]quinoline hydrochloride] |  |  | IC50 tacrine/IC50 compound (ratio of the IC50 of tacrine to the IC50 of each compound) (acetylcholinesterase; [3]): 0.15
9 | CCC1=CC2Cc3nc4ccccc4c(N)c3C(C1)C2 (racemic) [Icw, 12-Amino-9-ethyl-6,7,10,11-tetrahydro-7,11-methanocycloocta[b]quinoline] | 3.38 |  | 
10 | CCC1=CC2Cc3nc4ccccc4c(N)c3C(C1)C2 (single isomer, unassigned; (-)) [(-) --Icw, (-)-12-Amino-6,7,10,11-tetrahydro-9-ethyl-7,11-methanocycloocteno[b]quinoline hydrochloride] |  |  | IC50 tacrine/IC50 compound (ratio of the IC50 of tacrine to the IC50 of each compound) (acetylcholinesterase; [3]): 4.80; inhibitory activity against the enzyme acetylcholinesterase (in words) (acetylcholinesterase; qualitative comparison with tacrine or with enantiomer): much more active than their enantiomers
